The source made the active and inactive calls. The calls are words filed in the database; no cut-off is given here.

Four compounds from ChEMBL document CHEMBL3217423, “Binding of 9-O-(-amino) alkyl ether analogues of the plant alkaloid berberine to poly(A): insights into self-structure induction” (Medchemcomm, 2011) can be followed below.

The nature of assay [1]: Binding affinity to poly(A) tail mRNA (unknown origin) assessed as melting temperature of poly(A) self-structure by UV absorption/CD melting analysis.
Assay [2] in a line: Binding affinity to poly(A) tail mRNA (unknown origin) assessed as induction of self-structure formation by circular dichroic spectroscopy.
A short description of assay [3]: Binding affinity to poly(A) tail mRNA (unknown origin) assessed as induction of self-structure formation by circular dichroism analysis. For orientation: CD spectra are sensitive to the conformation of chiral molecules.
A short description of assay [4]: Binding affinity to poly(A) tail mRNA (unknown origin) assessed as apparent binding constant by absorption spectroscopy relative to berberine.
Assay [5] can be described thus: Binding affinity to poly(A) tail mRNA (unknown origin) assessed as association constant by isothermal titration calorimetry relative to berberine. For orientation: Isothermal titration calorimetry measures the heat released or taken up as one component is titrated into another.

In the case of `COc1ccc2cc3[n+](cc2c1OCCCCN)CCc1cc2c(cc1-3)OCO2`, the Tm in assay [1] came to 58 °C. Also, the outcome in assay [2] and in assay [3] was Active.

In the case of `COc1ccc2cc3[n+](cc2c1OCCCCCCN)CCc1cc2c(cc1-3)OCO2`, the Tm in assay [1] stood at 59.5 °C. Further, the result in assay [2] and in assay [3] was Active. Further, the Ratio is 20 in assay [4] and 10 in assay [5].

As to `COc1ccc2cc3[n+](cc2c1OC)CCc1cc2c(cc1-3)OCO2` [BERBERINE], in assay [1], the Tm came out at 58 °C. Besides, the outcome in assay [2] and in assay [3] was Active.

`COc1ccc2cc3[n+](cc2c1OCCN)CCc1cc2c(cc1-3)OCO2`: the Tm in assay [1] was determined as 59 °C. Also, in assay [5], the Ratio is 3.
